Tests used:
[1] = biological target: T1, EP3 membrane (EP3 receptor) (Homo sapiens, UniProt P43115); experiment: [3H]-PGE2 binding; EP3 competition binding (SPA)
T1 construct: purchased Millipore HTS092M
T1 sequence (P43115 1-390): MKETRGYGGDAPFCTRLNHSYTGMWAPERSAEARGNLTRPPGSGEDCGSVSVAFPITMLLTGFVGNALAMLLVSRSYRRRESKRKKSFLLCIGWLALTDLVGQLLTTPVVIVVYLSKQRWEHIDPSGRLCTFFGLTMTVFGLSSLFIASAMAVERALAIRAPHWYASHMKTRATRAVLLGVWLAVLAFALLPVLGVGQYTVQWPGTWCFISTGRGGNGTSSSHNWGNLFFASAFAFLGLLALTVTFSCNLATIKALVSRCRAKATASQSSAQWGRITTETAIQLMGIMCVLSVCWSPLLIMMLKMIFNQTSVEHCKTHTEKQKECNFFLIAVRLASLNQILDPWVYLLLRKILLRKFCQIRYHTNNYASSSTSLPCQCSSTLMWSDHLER
Summary of the method: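 SPA competition at room temperature, 2 h: EP3 membranes 2 μg/well, 2 nM [3H]-PGE2, 0.1% DMSO, in Tris/MgCl2/EDTA buffer pH 7.4. Compounds in 1:3 serial dilution; scintillation read; Ki by one-site nonlinear fit.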

[2] = biological target: T2, CHO cells over-expressing the EP3 receptor (Homo sapiens, UniProt P43115); experiment: CHO cell cAMP assay; EP3 cAMP antagonist dose response (sulprostone reference), HTRF; type: cell-based; settings: sulprostone 700 nM (EC80) and FSK 2 μM (EC70); read-out: CHO_cAMP IC50
T2 construct: expressed in transfected cells; host or cells: CHO cells
T2 sequence (P43115 1-390): T1 sequence (P43115 1-390)
Summary of the method: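 EP3-overexpressing CHO cells pre-incubated with test compound, then stimulated 30 min at 37 °C with FSK (2 μM, EC70) plus sulprostone (700 nM, EC80); antagonism seen as restored cAMP. cAMP measured by HTRF 665/615 ratio, converted via on-plate standard curve. IC50 from Hill fit of 11-point dosing.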

Row | Compound | Ki [1] [nM] | IC50 [2] [nM]
1 | O=C(NC/C(F)=C1\CCCc2cnn(-c3ccc(C(F)(F)F)cc3)c21)NS(=O)(=O)c1ccc2c(c1)OCCO2 [Compound #116, (Z)—N-((2-fluoro-2-(1-(4-(trifluoromethyl)phenyl)-1,4,5,6-tetrahydro-7H-indazol-7-ylidene)ethyl)carbamoyl)-2,3-dihydrobenzo[b][1,4]dioxine-6-sulfonamide] | 4100 | > 20000
2 | O=C(NC/C(F)=C1\COCc2cnn(-c3ccc(C(F)(F)F)cc3)c21)NS(=O)(=O)c1ccc(Cl)cc1 [Compound #118, (E)-4-chloro-N-((2-fluoro-2-(1-(4-(trifluoromethyl)phenyl)-1,4-dihydropyrano[4,3-c]pyrazol-7(6H)-ylidene)ethyl)carbamoyl)benzenesulfonamide] | 2000 | 16000
3 | O=C(NC/C(F)=C1\COCc2cnn(-c3ccc(C(F)(F)F)cc3)c21)NS(=O)(=O)c1cc(Cl)c(Cl)s1 [Compound #119, (E)-4,5-dichloro-N-((2-fluoro-2-(1-(4-(trifluoromethyl)phenyl)-1,4-dihydropyrano[4,3-c]pyrazol-7(6H)-ylidene)ethyl)carbamoyl)thiophene-2-sulfonamide] | 43 | 230
4 | O=C(NC/C(F)=C1\CCCCc2cnn(Cc3ccc(Cl)cc3Cl)c21)NS(=O)(=O)c1cc(Cl)c(Cl)s1 [Compound #120, (Z)-4,5-dichloro-N-((2-(1-(2,4-dichlorobenzyl)-4,5,6,7-tetrahydrocyclohepta[c]pyrazol-8(1H)-ylidene)-2-fluoroethyl)carbamoyl)thiophene-2-sulfonamide] | 10 | 12
5 | O=C(NC/C(F)=C1\CCCc2cnn(Cc3ccc(Cl)cc3Cl)c21)NS(=O)(=O)c1cc2ccccc2s1 [Compound #121, (Z)—N-((2-(1-(2,4-dichlorobenzyl)-1,4,5,6-tetrahydro-7H-indazol-7-ylidene)-2-fluoroethyl)carbamoyl)benzo[b]thiophene-2-sulfonamide] | 17 | 159
6 | O=C(NC/C=C1\CCCc2cnn(C3CCN(c4ccc(F)cc4)CC3)c21)NS(=O)(=O)c1ccc(Cl)cc1 [Compound #122, (E)-4-chloro-N-((2-(1-(1-(4-fluorophenyl)piperidin-4-yl)-1,4,5,6-tetrahydro-7H-indazol-7-ylidene)ethyl)carbamoyl)benzenesulfonamide] | 6 | 45
7 | O=C(NC/C=C1\CCCc2cnn(C3CCN(c4ccc(F)cc4)CC3)c21)NS(=O)(=O)c1cc(Cl)c(Cl)s1 [Compound #123, (E)-4,5-dichloro-N-((2-(1-(1-(4-fluorophenyl)piperidin-4-yl)-1,4,5,6-tetrahydro-7H-indazol-7-ylidene)ethyl)carbamoyl)thiophene-2-sulfonamide] | 1 | 6
8 | CS(=O)(=O)c1ccc(-n2ncc3c2/C(=C/CNC(=O)NS(=O)(=O)c2cc(Cl)c(Cl)s2)CCC3)cc1 [Compound #126, (E)-4,5-dichloro-N-((2-(1-(4-(methylsulfonyl)phenyl)-1,4,5,6-tetrahydro-7H-indazol-7-ylidene)ethyl)carbamoyl)thiophene-2-sulfonamide] | 1 | 30
9 | O=C(NC/C(F)=C1\CCCc2onc(Cc3ccc(Cl)cc3Cl)c21)NS(=O)(=O)c1cc(Cl)c(Cl)s1 [Compound #127, (Z)-4,5-dichloro-N-((2-(3-(2,4-dichlorobenzyl)-6,7-dihydrobenzo[d]isoxazol-4(5H)-ylidene)-2-fluoroethyl)carbamoyl)thiophene-2-sulfonamide] | 1 | 8
10 | O=C(NC/C(F)=C1/CCCc2onc(Cc3ccc(Cl)cc3Cl)c21)NS(=O)(=O)c1cc(Cl)c(Cl)s1 [Compound #128, (E)-4,5-dichloro-N-((2-(3-(2,4-dichlorobenzyl)-6,7-dihydrobenzo[d]isoxazol-4(5H)-ylidene)-2-fluoroethyl)carbamoyl)thiophene-2-sulfonamide] | 532 | 8400
11 | O=C(NC/C(F)=C1\CCCn2nnc(Cc3ccccc3)c21)NS(=O)(=O)c1cc(Cl)c(Cl)s1 [Compound #129, (Z)—N-((2-(3-benzyl-6,7-dihydro-[1,2,3]triazolo[1,5-a]pyridin-4(5H)-ylidene)-2-fluoroethyl)carbamoyl)-4,5-dichlorothiophene-2-sulfonamide] | 29 | 548
12 | O=C(NC/C(F)=C1\CCc2cnn(-c3ccc(C(F)(F)F)cc3)c21)NS(=O)(=O)c1cc(Cl)c(Cl)s1 [Compound #130, (Z)-4,5-dichloro-N-((2-fluoro-2-(1-(4-(trifluoromethyl)phenyl)-4,5-dihydrocyclopenta[c]pyrazol-6(1H)-ylidene)ethyl)carbamoyl)thiophene-2-sulfonamide] | 40 | 182

Now from value to compound:

Row | Ki [1] [nM] | IC50 [2] [nM] | Compound
13 | 1100 | 4200 | COc1ccc(Cl)cc1S(=O)(=O)NC(=O)NC/C(F)=C1\CCCc2cnn(-c3ccc4ccccc4c3)c21 [Compound #115, (Z)-5-chloro-N-((2-fluoro-2-(1-(naphthalen-2-yl)-1,4,5,6-tetrahydro-7H-indazol-7-ylidene)ethyl)carbamoyl)-2-methoxybenzenesulfonamide]
14 | > 10000 | > 20000 | O=C(NC/C(F)=C1/CCCc2cnn(-c3ccc(C(F)(F)F)cc3)c21)NS(=O)(=O)c1ccc2c(c1)OCCO2 [Compound #117, (E)-N-((2-fluoro-2-(1-(4-(trifluoromethyl)phenyl)-1,4,5,6-tetrahydro-7H-indazol-7-ylidene)ethyl)carbamoyl)-2,3-dihydrobenzo[b][1,4]dioxine-6-sulfonamide]
15 | 100 | 798 | O=C(NC/C(F)=C1\CCCc2cnn(-c3ccc(C(F)(F)F)cc3)c21)NS(=O)(=O)c1ccc(Cl)s1 [Compound #124, (Z)-5-chloro-N-((2-fluoro-2-(1-(4-(trifluoromethyl)phenyl)-1,4,5,6-tetrahydro-7H-indazol-7-ylidene)ethyl)carbamoyl)thiophene-2-sulfonamide]
16 | 3 | 20 | O=C(NC/C(F)=C1\CCCc2cnn(-c3ccc(C(F)(F)F)cc3)c21)NS(=O)(=O)c1cc(Cl)c(Cl)s1 [Compound #125, (Z)-4,5-dichloro-N-((2-fluoro-2-(1-(4-(trifluoromethyl)phenyl)-1,4,5,6-tetrahydro-7H-indazol-7-ylidene)ethyl)carbamoyl)thiophene-2-sulfonamide]
17 | 94 | 349 | COc1ccc(Cl)cc1S(=O)(=O)NC(=O)NC/C(F)=C1\CCCc2cnn(Cc3ccc(C(F)(F)F)cc3)c21 [Compound #131, (Z)-5-chloro-N-((2-fluoro-2-(1-(4-(trifluoromethyl)benzyl)-1,4,5,6-tetrahydro-7H-indazol-7-ylidene)ethyl)carbamoyl)-2-methoxybenzenesulfonamide]
18 | 350 | 3900 | O=C(NC/C(F)=C1\CCCc2cnn(Cc3ccc(C(F)(F)F)cc3)c21)NS(=O)(=O)c1cc2ccccc2o1 [Compound #132, (Z)—N-((2-fluoro-2-(1-(4-(trifluoromethyl)benzyl)-1,4,5,6-tetrahydro-7H-indazol-7-ylidene)ethyl)carbamoyl)benzofuran-2-sulfonamide]

— patent US20210253562A1, “ACYLSUFONAMIDE COMPOUNDS USEFUL AS EP3 RECEPTOR ANTAGONISTS” (Janssen Pharmaceutica NV, priority 2018, published 2021)
